ChEMBL document CHEMBL5321213, “Nicolaioidesin C: An Antiausterity Agent Shows Promising Antitumor Activity in a Pancreatic Cancer Xenograft Mouse Model” (J Nat Prod, 2023)
Activity calls are given as the source filed them. No cut-off for these calls is given here.

Experiments:
MIA PaCa-2 [1] = assay: Antitumor activity against human MIA PaCa-2 cells xenografted in athymic BALB/c-nu mouse assessed as fold change in lysine level in tumor at 10 mg/kg/day, ip administered five times per week for 4 weeks by LC-MS analysis; assay type: functional
PANC-1 [2] = assay: Preferential cytotoxicity against human PANC-1 cells in nutrient-deprived medium assessed as alteration in cell morphology by measuring cell rounding at 5 uM measured after 24 hrs by acridine orange and ethidium bromide dual fluorescent staining based imaging analysis; assay type: functional
MIA PaCa-2 [3] = assay: Preferential cytotoxicity against human MIA PaCa-2 cells in nutrient-deprived medium assessed as alteration in cell morphology by measuring cell rounding at 5 uM measured after 24 hrs by acridine orange and ethidium bromide dual fluorescent staining based imaging analysis; assay type: functional
PANC-1 [4] = assay: Inhibition of autophagy in human PANC-1 cells in nutrient-deprived medium assessed as downregulation of LC3-I protein expression measured after 6 hrs by Western blot analysis; assay type: functional, cell-based; settings: dose 5-20 µM
MIA PaCa-2 [5] = assay: Antimetastatic activity in human MIA PaCa-2 cells in nutrient-rich medium assessed as open wound area at 20 uM measured every 15 mins for 24 hrs by live cell imaging analysis (reference value: 62%); assay type: functional
MIA PaCa-2 [6] = assay: Antimetastatic activity in human MIA PaCa-2 cells in DMEM media assessed as inhibition of colony formation at 10 uM incubated for 24 hrs followed by replacement with fresh medium and measured after 10 days by crystal violet staining-based assay relative to control; assay type: functional
MIA PaCa-2 [7] = assay: Antitumor activity against human MIA PaCa-2 cells xenografted in athymic BALB/c-nu mouse assessed as fold change in serine level in tumor at 10 mg/kg/day, ip administered five times per week for 4 weeks by LC-MS analysis; assay type: functional
MIA PaCa-2 [8] = assay: Antitumor activity against human MIA PaCa-2 cells xenografted in athymic BALB/c-nu mouse assessed as fold change in sphinganine level in tumor at 10 mg/kg/day, ip administered five times per week for 4 weeks by LC-MS analysis; assay type: functional
MIA PaCa-2 [9] = assay: Antitumor activity against human MIA PaCa-2 cells xenografted in athymic BALB/c-nu mouse assessed as fold change in proline level in tumor at 10 mg/kg/day, ip administered five times per week for 4 weeks by LC-MS analysis; assay type: functional
MIA PaCa-2 [10] = assay: Preferential cytotoxicity against human MIA PaCa-2 cells in nutrient-deprived medium assessed as alteration in cell morphology by measuring cell blebbing at 5 uM measured after 24 hrs by acridine orange and ethidium bromide dual fluorescent staining based imaging analysis; assay type: functional
PANC-1 [11] = assay: Inhibition of Akt/mTOR signaling pathway in human PANC-1 cells in DMEM media assessed as reduction in mTOR phosphorylation at S2481 residue at 5 to 20 uM measured after 6 hrs by Western blot analysis; assay type: cell-based; settings: dose 5-20 µM
MIA PaCa-2 [12] = assay: Inhibition of Akt/mTOR signaling pathway in human MIA PaCa-2 cells in DMEM media assessed as reduction in AKT phosphorylation at S473 residue at 5 to 20 uM measured after 6 hrs by Western blot analysis; assay type: cell-based; settings: dose 5-20 µM
MIA PaCa-2 [13] = assay: Inhibition of Akt/mTOR signaling pathway in human MIA PaCa-2 cells in DMEM media assessed as reduction in mTOR phosphorylation at S2481 residue at 5 to 20 uM measured after 6 hrs by Western blot analysis; assay type: cell-based; settings: dose 5-20 µM
MIA PaCa-2 [14] = assay: Inhibition of autophagy in human MIA PaCa-2 cells in DMEM medium assessed as downregulation of LC3 protein expression at 5 to 20 uM measured after 6 hrs by Western blot analysis; assay type: functional, cell-based; settings: dose 5-20 µM
MIA PaCa-2 [15] = assay: Antitumor activity against human MIA PaCa-2 cells xenografted in athymic BALB/c-nu mouse assessed as reduction in Akt phosphorylation at S473 residue in tumor at 10 mg/kg/day, ip administered five times per week for 4 weeks by Western blot analysis; assay type: functional, organism-based
MIA PaCa-2 [16] = assay: Antitumor activity against human MIA PaCa-2 cells xenografted in athymic BALB/c-nu mouse assessed as fold change in 2,6-diaminopimelicacid level in tumor at 10 mg/kg/day, ip administered five times per week for 4 weeks by LC-MS analysis; assay type: functional
MIA PaCa-2 [17] = assay: Antitumor activity against human MIA PaCa-2 cells xenografted in athymic BALB/c-nu mouse assessed as fold change in 3-sulfolacticacid level in tumor at 10 mg/kg/day, ip administered five times per week for 4 weeks by LC-MS analysis; assay type: functional
MIA PaCa-2 [18] = assay: Antitumor activity against human MIA PaCa-2 cells xenografted in athymic BALB/c-nu mouse assessed as fold change in arabinosyl hypoxanthine level in tumor at 10 mg/kg/day, ip administered five times per week for 4 weeks by LC-MS analysis; assay type: functional
MIA PaCa-2 [19] = assay: Antitumor activity against human MIA PaCa-2 cells xenografted in athymic BALB/c-nu mouse assessed as fold change in D-ribulose5-phosphate level in tumor at 10 mg/kg/day, ip administered five times per week for 4 weeks by LC-MS analysis; assay type: functional
MIA PaCa-2 [20] = assay: Antitumor activity against human MIA PaCa-2 cells xenografted in athymic BALB/c-nu mouse assessed as fold change in hypoxanthine level in tumor at 10 mg/kg/day, ip administered five times per week for 4 weeks by LC-MS analysis; assay type: functional
MIA PaCa-2 [21] = assay: Antitumor activity against human MIA PaCa-2 cells xenografted in athymic BALB/c-nu mouse assessed as fold change in 1-aminocyclopropanecarboxylicacid level in tumor at 2 mg/kg/day, ip administered five times per week for 4 weeks by LC-MS analysis; assay type: functional
MIA PaCa-2 [22] = assay: Antitumor activity against human MIA PaCa-2 cells xenografted in athymic BALB/c-nu mouse assessed as fold change in cytidine diphosphate ethanolamine level in tumor at 2 mg/kg/day, ip administered five times per week for 4 weeks by LC-MS analysis; assay type: functional
MIA PaCa-2 [23] = assay: Antitumor activity against human MIA PaCa-2 cells xenografted in athymic BALB/c-nu mouse assessed as fold change in D-ribulose 5-phosphate level in tumor at 2 mg/kg/day, ip administered five times per week for 4 weeks by LC-MS analysis; assay type: functional
MIA PaCa-2 [24] = assay: Antitumor activity against human MIA PaCa-2 cells xenografted in athymic BALB/c-nu mouse assessed as fold change in hypoxanthine level in tumor at 2 mg/kg/day, ip administered five times per week for 4 weeks by LC-MS analysis; assay type: functional
MIA PaCa-2 [25] = assay: Antitumor activity against human MIA PaCa-2 cells xenografted in athymic BALB/c-nu mouse assessed as fold change in proline level in tumor at 2 mg/kg/day, ip administered five times per week for 4 weeks by LC-MS analysis; assay type: functional
MIA PaCa-2 [26] = assay: Antitumor activity against human MIA PaCa-2 cells xenografted in athymic BALB/c-nu mouse assessed as fold change in nicotinamide level in tumor at 2 mg/kg/day, ip administered five times per week for 4 weeks by LC-MS analysis; assay type: functional
MIA PaCa-2 [27] = assay: Antitumor activity against human MIA PaCa-2 cells xenografted in athymic BALB/c-nu mouse assessed as fold change in tetramethyl urea level in tumor at 2 mg/kg/day, ip administered five times per week for 4 weeks by LC-MS analysis; assay type: functional
MIA PaCa-2 [28] = assay: Antitumor activity against human MIA PaCa-2 cells xenografted in athymic BALB/c-nu mouse assessed as fold change in uracil level in tumor at 2 mg/kg/day, ip administered five times per week for 4 weeks by LC-MS analysis; assay type: functional

SMILES: COc1cc(O)c(C(=O)[C@@H]2CC=C(CCC=C(C)C)C[C@H]2c2ccccc2)c(O)c1
- fold change (FC) (MIA PaCa-2 [1]): 0.29
- Activity (PANC-1 [2]): Active
- Activity (MIA PaCa-2 [3]): Active
- inhibition (PANC-1 [4]): Dose-Dependent Effect
- Activity (MIA PaCa-2 [5]): 87%
- inhibition at 10 µM (MIA PaCa-2 [6]): 88%
- fold change (FC) (MIA PaCa-2 [7]): 0.5
- fold change (FC) (MIA PaCa-2 [8]): 3.68
- fold change (FC) (MIA PaCa-2 [9]): 0.53
- Activity (MIA PaCa-2 [10]): Active
- inhibition (PANC-1 [11]): inactive
- inhibition (MIA PaCa-2 [12]): inactive
- inhibition (MIA PaCa-2 [13]): inactive
- inhibition (MIA PaCa-2 [14]): inactive
- Activity (MIA PaCa-2 [15]): Active
- fold change (FC) (MIA PaCa-2 [16]): 0.36
- fold change (FC) (MIA PaCa-2 [17]): 0.44
- fold change (FC) (MIA PaCa-2 [18]): 0.21
- fold change (FC) (MIA PaCa-2 [19]): 0.22
- fold change (FC) (MIA PaCa-2 [20]): 0.4
- fold change (FC) (MIA PaCa-2 [21]): 0.8
- fold change (FC) (MIA PaCa-2 [22]): 0.4
- fold change (FC) (MIA PaCa-2 [23]): 0.22
- fold change (FC) (MIA PaCa-2 [24]): 0.57
- fold change (FC) (MIA PaCa-2 [25]): 0.62
- fold change (FC) (MIA PaCa-2 [26]): 0.52
- fold change (FC) (MIA PaCa-2 [27]): 0.76
- fold change (FC) (MIA PaCa-2 [28]): 0.29
